Measurements as given in US9845330B2, “6-nitro-2,3-dihydroimidazo[2,1-b]oxazoles and a process for the preparation thereof” (priority 2013, dated 2017).
Values after ≈ are worked out from the molar mass of the structure shown. Like-named read-outs stand apart in the source and are kept apart here.

How the values were obtained:
Assay type in all cases: cell-based
[1] = test system: M. tuberculosis H37Rv (ATCC 27294); test: MIC by broth dilution method, M. tuberculosis H37Rv; conditions: Mycobacterium tuberculosis
[2] = Cytotoxicity assay (MTT) in macrophage J774 cells; conditions: mouse, J774 macrophage cells; also called safety index
In short: (§1)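 J774 cells seeded at 3×10^4 cells/cm^2 in RPMI with FCS reduced to 5%, then exposed to compounds at 40 μg/ml for 24 hrs. MTT reduction read at 450 nm; percentage cytotoxicity calculated relative to untreated cells.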

[3] = test system: macrophage J774 cells line; test: Cytotoxicity assay (MTT) in macrophage J774 cells; conditions: J774 cells, 24 hrs, MTT
In short: as §1

[4] = 504 h, broth dilution, 3 weeks, read-out: MIC M. tb H37Rv
[5] = read-out: MIC value, text summary: sensitive H37Rv as well as MDR and XDR strains of M. tuberculosis

Compound	MIC [1, 4] [µg/mL]	selectivity ratio at 24 h, 40 μg/ml [2]	Cytotoxicity [3] [µg/mL]	MIC [1, 5] [µg/mL]
Cc1ccc(-c2cc(-c3ccc(OC[C@@]4(C)Cn5cc([N+](=O)[O-])nc5O4)cc3)no2)cc1 [IC6, (R)-2-{4-[5-(4-methylphenyl)isoxazol-3-yl]phenoxymethyl}-2,3-dihydro-2-methyl-6-nitroimidazo[2,1-b]oxazole]	1 (≈ 2.31 µM)	> 10	>40	
C[C@]1(COc2ccc(S(=O)(=O)N3CCN(C(=O)c4ccccc4)CC3)cc2)Cn2cc([N+](=O)[O-])nc2O1 [IIC6, (R)-{4-[4-(2-methyl-6-nitro-2,3-dihydroimidazo[2,1-b]oxazol-2yl)methoxyphenyl]sulfonyl}piperazine-1-yl(phenyl)methanone]	2 (≈ 3.79 µM)	> 10	>40	
C[C@]1(COc2ccc(-c3cc(COc4ccccc4F)on3)cc2)Cn2cc([N+](=O)[O-])nc2O1 [IC16, (R)-2-{4-[5-(2-fluorophenoxymethyl)isoxazol-3-yl]phenoxymethyl}-2,3-dihydro-2-methyl-6-nitroimidazo[2,1-b]oxazole]	0.5 (≈ 1.07 µM)	> 10	>40	< 1
COc1ccc(-c2cc(-c3ccc(OC[C@@]4(C)Cn5cc([N+](=O)[O-])nc5O4)cc3)no2)cc1 [IC7, (R)-2-{4-[5-(4-methoxyphenyl)isoxazol-3-yl]phenoxymethyl}-2,3-dihydro-2-methyl-6-nitroimidazo[2,1-b]oxazole]	0.5 (≈ 1.11 µM)	> 10	>40	< 1
C[C@]1(COc2ccc(-c3cc(COc4ccc(C(F)(F)F)cc4)on3)cc2)Cn2cc([N+](=O)[O-])nc2O1 [IC15, (R)-2-{4-[5-(4-trifluoromethylphenoxymethyl)isoxazol-3-yl]phenoxymethyl}-2,3-dihydro-2-methyl-6-nitroimidazo[2,1-b]oxazole]	0.25 (≈ 0.484 µM)	> 10	>40	< 1
CCc1ccc(OCc2cn(-c3ccc(OC[C@@]4(C)Cn5cc([N+](=O)[O-])nc5O4)cc3)nn2)cc1 [IA31]	0.25 (≈ 0.525 µM)	> 10	>40	< 1
C[C@]1(COc2ccc(-n3cc(-c4cccc(C(F)(F)F)c4)nn3)cc2)Cn2cc([N+](=O)[O-])nc2O1 [IA13, (R)-2-{4-[4-(3-trifluoromethylphenyl)-1H-1,2,3-triazol-1-yl]phenoxymethyl}-2,3-dihydro-2-methyl-6-nitroimidazo[2,1-b]oxazole]	2 (≈ 4.11 µM)	> 10	>40	
CCc1ccc(-c2cn(-c3ccc(OC[C@@]4(C)Cn5cc([N+](=O)[O-])nc5O4)cc3)nn2)cc1 [IA2, (R)-2-{4-[4-(4-ethylphenyl)-1H-1,2,3-triazol-1-yl]phenoxymethyl}-2,3-dihydro-2-methyl-6-nitroimidazo[2,1-b]oxazole]	2 (≈ 4.48 µM)	> 10	>40	
CCCCCCCc1cc(-c2ccc(OC[C@@]3(C)Cn4cc([N+](=O)[O-])nc4O3)cc2)no1 [IC12, (R)-2-{4-[5-heptylisoxazol-3-yl]phenoxymethyl}-2,3-dihydro-2-methyl-6-nitroimidazo[2,1-b]oxazole]	2 (≈ 4.54 µM)	> 10	>40	
Cc1ccc(OCc2cn(-c3ccc(OC[C@@]4(C)Cn5cc([N+](=O)[O-])nc5O4)cc3)nn2)cc1 [IA29]	32 (≈ 69.2 µM)	> 10	>40	
CCc1ccc(-c2cc(-c3ccc(OC[C@@]4(C)Cn5cc([N+](=O)[O-])nc5O4)cc3)no2)cc1 [IC2, (R)-2-{4-[5-(4-ethylphenyl)isoxazol-3-yl]phenoxymethyl}-2,3-dihydro-2-methyl-6-nitroimidazo[2,1-b]oxazole]	2 (≈ 4.48 µM)	> 10	>40	
